Test system: DNA repair protein genes
Assay: DNA chip mRNA expression in yeast, DNA repair protein genes (Table 3)
Type: cell-based, Saccharomyces cerevisiae S288C
Details: incubated two hours, concentrations as in the 1st table
Procedure, shortened: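 S. cerevisiae S288C grown at 25° C. in YPD to log phase, then exposed 2 h to a toxicant at a growth-inhibiting, non-lethal concentration; untreated cells as control. Poly(A) mRNA reverse-transcribed with Cy3-dUTP or Cy5-dUTP, hybridized >12 h at 65° C. to whole-genome yeast DNA chip; value = fluorescence ratio treated/untreated.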

For `S=C([S-])NCCNC(=S)[S-].[Zn+2]` [(11), zinc N,N′-ethylenebis(dithiocarbamate)], the “The level of expressed mRNA in the presence of chemical substance/The level of expressed mRNA in the absence of chemical substance” value (yeast gene YAL015C) was 1.4, the “The level of expressed mRNA in the presence of chemical substance/The level of expressed mRNA in the absence of chemical substance” value (yeast gene YAR007C) was 0.9 and the “The level of expressed mRNA in the presence of chemical substance/The level of expressed mRNA in the absence of chemical substance” value (yeast gene YBL019W) was 1.0. For the same compound, the “The level of expressed mRNA in the presence of chemical substance/The level of expressed mRNA in the absence of chemical substance” value (yeast gene YBR073W) was 0.5, the “The level of expressed mRNA in the presence of chemical substance/The level of expressed mRNA in the absence of chemical substance” value (yeast gene YBR272C) was 1.1 and the “The level of expressed mRNA in the presence of chemical substance/The level of expressed mRNA in the absence of chemical substance” value (yeast gene YCR014C) was 0.8. For the same compound, the “The level of expressed mRNA in the presence of chemical substance/The level of expressed mRNA in the absence of chemical substance” value (yeast gene YDL017W) was 0.8, the “The level of expressed mRNA in the presence of chemical substance/The level of expressed mRNA in the absence of chemical substance” value (yeast gene YDL059C) was 2.0 and the “The level of expressed mRNA in the presence of chemical substance/The level of expressed mRNA in the absence of chemical substance” value (yeast gene YDL200C) was 1.2. For the same compound, the “The level of expressed mRNA in the presence of chemical substance/The level of expressed mRNA in the absence of chemical substance” value (yeast gene YDR054C) was 1.9, the “The level of expressed mRNA in the presence of chemical substance/The level of expressed mRNA in the absence of chemical substance” value (yeast gene YDR369C) was 1.1 and the “The level of expressed mRNA in the presence of chemical substance/The level of expressed mRNA in the absence of chemical substance” value (yeast gene YEL019C) was 1.2. For the same compound, the “The level of expressed mRNA in the presence of chemical substance/The level of expressed mRNA in the absence of chemical substance” value (yeast gene YEL037C) was 1.0, the “The level of expressed mRNA in the presence of chemical substance/The level of expressed mRNA in the absence of chemical substance” value (yeast gene YER162C) was 0.5 and the “The level of expressed mRNA in the presence of chemical substance/The level of expressed mRNA in the absence of chemical substance” value (yeast gene YFL014W) was 5.0. The “The level of expressed mRNA in the presence of chemical substance/The level of expressed mRNA in the absence of chemical substance” value (yeast gene YGL058W) was 0.8, the “The level of expressed mRNA in the presence of chemical substance/The level of expressed mRNA in the absence of chemical substance” value (yeast gene YGL091C) was 2.1 and the “The level of expressed mRNA in the presence of chemical substance/The level of expressed mRNA in the absence of chemical substance” value (yeast gene YGL127C) was 1.0. For the same compound, the “The level of expressed mRNA in the presence of chemical substance/The level of expressed mRNA in the absence of chemical substance” value (yeast gene YGL163C) was 0.4, the “The level of expressed mRNA in the presence of chemical substance/The level of expressed mRNA in the absence of chemical substance” value (yeast gene YGL249W) was 0.6 and the “The level of expressed mRNA in the presence of chemical substance/The level of expressed mRNA in the absence of chemical substance” value (yeast gene YGR180C) was 1.0. The “The level of expressed mRNA in the presence of chemical substance/The level of expressed mRNA in the absence of chemical substance” value (yeast gene YGR231C) was 1.6, the “The level of expressed mRNA in the presence of chemical substance/The level of expressed mRNA in the absence of chemical substance” value (yeast gene YGR258C) was 0.3 and the “The level of expressed mRNA in the presence of chemical substance/The level of expressed mRNA in the absence of chemical substance” value (yeast gene YHR164C) was 0.6. The “The level of expressed mRNA in the presence of chemical substance/The level of expressed mRNA in the absence of chemical substance” value (yeast gene YIL036W) was 1.2, the “The level of expressed mRNA in the presence of chemical substance/The level of expressed mRNA in the absence of chemical substance” value (yeast gene YIL072W) was 1.8 and the “The level of expressed mRNA in the presence of chemical substance/The level of expressed mRNA in the absence of chemical substance” value (yeast gene YIL143C) was 1.5. For the same compound, the “The level of expressed mRNA in the presence of chemical substance/The level of expressed mRNA in the absence of chemical substance” value (yeast gene YIL153W) was 1.0, the “The level of expressed mRNA in the presence of chemical substance/The level of expressed mRNA in the absence of chemical substance” value (yeast gene YIR002C) was 0.8 and the “The level of expressed mRNA in the presence of chemical substance/The level of expressed mRNA in the absence of chemical substance” value (yeast gene YJL026W) was 1.3. For the same compound, the “The level of expressed mRNA in the presence of chemical substance/The level of expressed mRNA in the absence of chemical substance” value (yeast gene YJR046W) was 0.6, the “The level of expressed mRNA in the presence of chemical substance/The level of expressed mRNA in the absence of chemical substance” value (yeast gene YJR052W) was 1.1 and the “The level of expressed mRNA in the presence of chemical substance/The level of expressed mRNA in the absence of chemical substance” value (yeast gene YKL145W) was 1.8. The “The level of expressed mRNA in the presence of chemical substance/The level of expressed mRNA in the absence of chemical substance” value (yeast gene YLR103C) was 0.9, the “The level of expressed mRNA in the presence of chemical substance/The level of expressed mRNA in the absence of chemical substance” value (yeast gene YLR233C) was 0.8 and the “The level of expressed mRNA in the presence of chemical substance/The level of expressed mRNA in the absence of chemical substance” value (yeast gene YLR288C) was 1.4. For the same compound, the “The level of expressed mRNA in the presence of chemical substance/The level of expressed mRNA in the absence of chemical substance” value (yeast gene YML032C) was 1.0, the “The level of expressed mRNA in the presence of chemical substance/The level of expressed mRNA in the absence of chemical substance” value (yeast gene YML058W) was 3.3 and the “The level of expressed mRNA in the presence of chemical substance/The level of expressed mRNA in the absence of chemical substance” value (yeast gene YMR035W) was 1.5. For the same compound, the “The level of expressed mRNA in the presence of chemical substance/The level of expressed mRNA in the absence of chemical substance” value (yeast gene YMR072W) was 1.9, the “The level of expressed mRNA in the presence of chemical substance/The level of expressed mRNA in the absence of chemical substance” value (yeast gene YMR096W) was 1.5 and the “The level of expressed mRNA in the presence of chemical substance/The level of expressed mRNA in the absence of chemical substance” value (yeast gene YMR284W) was 1.1. The “The level of expressed mRNA in the presence of chemical substance/The level of expressed mRNA in the absence of chemical substance” value (yeast gene YNL213C) was 1.5, the “The level of expressed mRNA in the presence of chemical substance/The level of expressed mRNA in the absence of chemical substance” value (yeast gene YNL250W) was 1.0 and the “The level of expressed mRNA in the presence of chemical substance/The level of expressed mRNA in the absence of chemical substance” value (yeast gene YNL261W) was 0.8. For the same compound, the “The level of expressed mRNA in the presence of chemical substance/The level of expressed mRNA in the absence of chemical substance” value (yeast gene YNL312W) was 1.4, the “The level of expressed mRNA in the presence of chemical substance/The level of expressed mRNA in the absence of chemical substance” value (yeast gene YOL043C) was 1.2 and the “The level of expressed mRNA in the presence of chemical substance/The level of expressed mRNA in the absence of chemical substance” value (yeast gene YOR005C) was 1.2. The “The level of expressed mRNA in the presence of chemical substance/The level of expressed mRNA in the absence of chemical substance” value (yeast gene YOR386W) was 1.4, the “The level of expressed mRNA in the presence of chemical substance/The level of expressed mRNA in the absence of chemical substance” value (yeast gene YPL022W) was 0.8 and the “The level of expressed mRNA in the presence of chemical substance/The level of expressed mRNA in the absence of chemical substance” value (yeast gene YPL164C) was 1.1. For the same compound, the “The level of expressed mRNA in the presence of chemical substance/The level of expressed mRNA in the absence of chemical substance” value (yeast gene YPL194W) was 0.9 and the “The level of expressed mRNA in the presence of chemical substance/The level of expressed mRNA in the absence of chemical substance” value (yeast gene YPR025C) was 0.9.
